Read-outs that look alike come from different tables or passages of the source.
What was measured:
[1] = after oral administration; cited from earlier work
[2] = Stability on addition of 0.1 molar sodium bicarbonate (precipitate formation); assay type: physicochemical
Method: (§1) A 10 ml portion was diluted with 200 ml of a 0.1 molar solution of sodium bicarbonate. […] An additional 600 ml of 0.1 molar sodium bicarbonate solution was added.
(§2) A 10 ml portion was diluted with 200 ml of a 0.1 molar solution of sodium bicarbonate.
as §2

[3] = system: rats; conditions: cited from earlier work
[4] = pH of aqueous solution of the complex; assay type: physicochemical; conditions: 0.1 molar in water
Method: as §1, §2, §2

[5] = system: periparturient dairy cows
Source text: The effects of supplementation with chromium in the form of chromium tri-L-methionine hydrochloride on performance of periparturient dairy cows were studied. Seventy-two cows were used to determine whether milk production and dry matter intake were affected by chromium tri-L-methionine hydrochloride supplementation of the diet during the periparturient period. Cows were fed either a diet high in nonforage fiber sources or high in non-fiber carbohydrates from day 21 before expected parturition until parturition and then fed a common lactating diet. Chromium tri-L-methionine hydrochloride was supplemented once daily via gelcap at doses of 0, 0.03, or 0.06 mg Cr/kg of metabolic body weight. Chromium supplementation began on day 21 before expected parturition and continued until day 28 postpartum. Cows were milked after calving according to established procedures. Feed intake was recorded daily for each cow throughout the experiment. Samples of the diet were obtained weekly and the dry matter contents were determined. Individual milk weights were recorded at each milking during the lactating phase of the experiment. Milk samples were taken from all milkings during one 24-hours period each week, composited based on the amount of milk produced at each milking, and analyzed for fat, protein, lactose, and total solids.

[6] = system: rat
Method: Fifty 6 weeks old rats were used in the study (25 females and 25 males). Their body weight ranged from 130 to 220 g for males and 120-190 g for females. The animals were housed in polycarbonate cages over dust-free sawdust bedding in groups of five. The cages were placed in an air-conditioned room at 22° C. and 55% relative humidity. Rats were fed pelleted complete diet ad libitum. Animals were fasted overnight before dosing and given food 3-4 hours after dosing. Animals given water ad libitum. Animals were assigned at random to one of five treatments. Two groups of five animals each, one group of males and one group of females were assigned to each treatment. The treatments were control, 250 mg/kg, 500 mg/kg, 1000 mg/kg and 2000 mg/kg doses. A solution of the compound in water was administered in a single oral dose by gastric gavage. Animals were maintained for a 14-day observation period after receiving the dose. Surviving animals were killed on day 14. The weight of animals were recorded immediately before treatment, twice weekly for the study period and at death.

[7] = system: rat isolated adipose tissue; conditions: cited from earlier work
[8] = cited from earlier work
[9] = system: DNA; conditions: cited from earlier work
[10] = system: Chinese hamster ovary cells; conditions: cited from earlier work
[11] = system: rat skeletal muscle cultures; conditions: rat skeletal muscle cultures in vitro; cited from earlier work
[12] = system: rat; conditions: added to rat diet; cited from earlier work
[13] = system: Humans; conditions: dietary supplementation, males and females; cited from earlier work
[14] = slightly more than 2 equivalents of 0.1 molar sodium bicarbonate to a 0.1M solution
[15] = 10 ml of 0.1 molar solution + 200 ml 0.1 molar sodium bicarbonate (20 molar equivalents)
[16] = additional 600 ml 0.1 molar sodium bicarbonate (80 molar equivalents in all)

CC(=O)/C=C(/C)[O-].CC(=O)/C=C(/C)[O-].CC(=O)/C=C(/C)[O-].[Cr+3] [Chromium Acetylacetonate]
absorption from the gastrointestinal tract [1]: rapidly absorbed

[Cl][Cr]([Cl])[Cl] [chromium chloride, reference compound]
pH of the mixture [2, 14]: 4.356 | precipitate formation [2, 14]: voluminous precipitate | toxicity in rats ([3]; rats): lack of toxicity

Chromium (III) Tri-leucinate Hydrochloride [Example 2]
pH of a 0.1 molar solution in water [4]: 3.996 | pH of the solution after sodium bicarbonate [2, 15]: 7.987 | precipitate formation [2, 15]: No precipitate was formed

Chromium (III) Tri-methionate Hydrochloride [Example 1]
pH of a 0.1 molar solution in water [4]: 4.078 | pH of the solution after sodium bicarbonate [2, 15]: 8.097 | precipitate formation [2, 15]: No precipitate was formed | pH of the solution after sodium bicarbonate [2, 16]: 8.354 | precipitate formation [2, 16]: No precipitate was formed | % Milk Fat ([5]; 0.03 mg/kg BW^.75): 4.41% | % Milk Lactose ([5]; 0.03 mg/kg BW^.75): 4.69% | % Milk Protein ([5]; 0.03 mg/kg BW^.75): 3.37% | % Milk Solids ([5]; 0.03 mg/kg BW^.75): 13.39% | Milk Fat ([5]; 0.03 mg/kg BW^.75): 1.76 kg/day | Milk Lactose ([5]; 0.03 mg/kg BW^.75): 1.91 kg/day | Milk Production ([5]; 0.03 mg/kg BW^.75): 40.6 kg/day | Milk Protein ([5]; 0.03 mg/kg BW^.75): 1.33 kg/day | Milk Solids ([5]; 0.03 mg/kg BW^.75): 5.37 kg/day | Postpartum Dry Matter Intake ([5]; 0.03 mg/kg BW^.75): 18.9 kg/day | Prepartum Dry Matter Intake ([5]; 0.03 mg/kg BW^.75): 13.9 kg/day | % Milk Fat ([5]; 0.06 mg/kg BW^.75): 4.33% | % Milk Lactose ([5]; 0.06 mg/kg BW^.75): 4.61% | % Milk Protein ([5]; 0.06 mg/kg BW^.75): 3.15% | % Milk Solids ([5]; 0.06 mg/kg BW^.75): 13.03% | Milk Fat ([5]; 0.06 mg/kg BW^.75): 1.81 kg/day | Milk Lactose ([5]; 0.06 mg/kg BW^.75): 1.98 kg/day | Milk Production ([5]; 0.06 mg/kg BW^.75): 42.8 kg/day | Milk Protein ([5]; 0.06 mg/kg BW^.75): 1.31 kg/day | Milk Solids ([5]; 0.06 mg/kg BW^.75): 5.51 kg/day | Postpartum Dry Matter Intake ([5]; 0.06 mg/kg BW^.75): 19.4 kg/day | Prepartum Dry Matter Intake ([5]; 0.06 mg/kg BW^.75): 13.7 kg/day | effect on dry matter intake in cows ([5]; diet supplementation, 0.03 or 0.06 mg Cr/kg metabolic body weight): did not affect | body weight gain ([6]; 2000 mg/kg dose, 4000 folds the recommended dose): slight decrease | food consumption compared to control ([6]; 1000 and 2000 mg/kg doses): dose related decrease | gain in body weight ([6]; dose 2000 folds the recommended dose): not associated with a decrease | toxicity in rats ([6]; doses used / high doses): non-toxic | decrease in body weight gain ([6]; male rats, 2000 mg/kg single oral dose): 5% | macroscopic abnormalities at necropsy ([6]; necropsied on day 14 after the oral dose): no macroscopic abnormalities | mortality ([6]; single oral dose 250-2000 mg/kg, 14-day observation): No animals died | treatment-related clinical signs ([6]; single oral dose, any of the dose levels (250-2000 mg/kg)): no treatment-related clinical signs | toxicity ([6]; single oral dose, dose levels 1000 folds the recommended dose in pigs): did not induce any toxicity

chromium dinicotinate
insulin activity [7]: potentiated

chromium picolinate
water solubility [8]: limited | DNA cleavage [9]: cleaves DNA | chromosome damage [10]: produces chromosome damage | glucose uptake [11]: increased | glycation of hemoglobin [12]: prevented | plasma glucose [12]: significant decrease | lean body mass [13]: significant increase | toxicity in rats ([3]; rat, in vivo): lack of toxicity

— patent US7445803B2, “Chromium (III) alpha amino acid complexes” (priority 2002, dated 2008)
